From ChEMBL document CHEMBL1130910, “Design of novel porphyrin-binding peptides based on antibody CDR” (Bioorg Med Chem Lett, 1998)

Experiments:
[1] = Evaluated for binding constant with antigen meso-tetrakis (4-carboxyphenyl)porphyrin (TCPP) at 20% methanol content.
[2] = Evaluated for binding constant with antigen meso-tetrakis (4-carboxyphenyl)porphyrin (TCPP) at 40% methanol content.
[3] = Evaluated for binding constant with antigen meso-tetrakis (4-carboxyphenyl)porphyrin (TCPP) at 5% methanol content.
[4] = Evaluated for binding constant with antigen meso-tetrakis (4-carboxyphenyl)porphyrin (TCPP) at 15% methanol content.
[5] = Evaluated for binding constant with antigen meso-tetrakis (4-carboxyphenyl)porphyrin (TCPP) at 0% methanol content.
[6] = Evaluated for binding constant with antigen meso-tetrakis (4-carboxyphenyl)porphyrin (TCPP) at 35% methanol content.
[7] = Evaluated for binding constant with antigen meso-tetrakis (4-carboxyphenyl)porphyrin (TCPP) at 30% methanol content.

CC[C@H](C)[C@H](NC(=O)[C@H](CCCN=C(N)N)NC(=O)CNC(=O)Cc1ccc2ccc3cccc4ccc1c2c34)C(=O)N[C@H]1CSSC[C@H](C(=O)N[C@H](C(=O)N[C@@H](CCCCN)C(=O)N[C@@H](Cc2ccc(O)cc2)C(N)=O)[C@H](C)O)NC(=O)CNC(=O)[C@H](CC(N)=O)NC(=O)[C@@H](C)NC(=O)[C@@H]2CCCN2C1=O
Ka [1]: 140000 M⁻¹ | Ka [2]: 9700 M⁻¹ | Ka [3]: 420000 M⁻¹ | Ka [4]: 260000 M⁻¹ | Ka [5]: 680000 M⁻¹ | Ka [6]: 15000 M⁻¹ | Ka [7]: 70000 M⁻¹
